Reference: patent US20250090562A1, “METHODS, COMPOSITIONS AND USES RELATED TO THE TREATMENT AND PREVENTION OF LEIGH’S SYNDROME” (Stealth BioTherapeutics Inc., priority 2023, published 2025)

Experiments:
15-lipoxygenase (15-LO) = assay: 15(S)-HETE ELISA following RSL3 treatment, healthy fibroblasts; assay type: cell-based, human; conditions: 700 nM RSL3, 1 μM compound, 24 h
Procedure: Samples for the 15(S)-HETE ELISA were generated by the RSL3 cytoprotection assay described above. Healthy or Leigh fibroblasts were resuspended in assay medium, seeded at 200,000 cells per well in a clear, tissue culture-treated, 24-well plate. Cells were incubated at 37° C. for 24 hours. Supernatant was aspirated from each well following the incubation.
Fibroblasts from both a healthy individual and a patient diagnosed with Leigh syndrome were examined (but not all compounds were examined in each cell type). Activation of ferroptosis has been implicated as a driver of epilepsy, which is commonly associated with Leigh syndrome. […] Kahn-Kirby et al. PLOS One. […] As a key regulator of ferroptosis, 15-LO serves as a rational therapeutic target in Leigh syndrome.

[1] = tested on: Healthy (GM08402) fibroblasts; assay: Erastin cytoprotection assay, healthy fibroblasts; assay type: cell-based, human; conditions: 2 μM erastin, 250 μM FAC, 50 μM AA, 10-1000 nM compound, 24 h
Procedure: (§1) Briefly, Healthy (GM08402) or Leigh (GM03672) fibroblasts were resuspended in assay medium, seeded at 10,000 cells per well in a clear, tissue cultured-treated, 96-well plate, and incubated at 37° C. overnight. Following the incubation, supernatant was manually aspirated from wells, taking care not to disrupt cells. Fibroblasts were co-treated in a final volume of 100 μL with 2 μM erastin (Millipore Corp., Cat #), 250 μM ferric ammonium citrate (FAC), 50 μM ascorbic acid (AA), and a titration of one of each of Compounds 1 to 4 or Vatiquinone ranging from 10 to 1000 nM. Following another 24-hour incubation at 37° C., cell viability was measured using the CellTiter-Glo Luminescent Cell Viability Kit (ProMega) per Manufacturer's instructions. Luminescence units were quantified by GEN5 software on a BioTek SYNERGY neo2 plate reader (LUM filter).
(§2) Briefly, erastin, like RSL3, is known to induce ferroptosis. […] Erastin was incubated with cell fibroblasts for 24 hours to induce ferroptosis. Cells were co-treated with each of Compounds 1 to 4, or Vatiquinone as the test articles. Test articles were administered at a range of concentrations to derive a curve. Cell viability was determined using a commercially available kit that measures ATP production. […] An increase in cell viability as determined by the assay is considered to be protective against ferroptosis.

[2] = tested on: Leigh (GM03672) fibroblasts; assay: Erastin cytoprotection assay, Leigh fibroblasts; assay type: cell-based, human; conditions: 2 μM erastin, 250 μM FAC, 50 μM AA, 10-1000 nM compound, 24 h
Procedure: as §1, §2

[3] = Pharmacokinetics of Compound 3 and Compound 4, five daily subcutaneous doses, mice (plasma, heart, brain); assay type: in vivo, C57Bl/6 mice; conditions: mouse; for tolerability: SC once per day for 5 days, up to 60 mg/kg
Procedure: • Animals: Male/C57Bl/6 mice/-18-25 grams were received from an approved vendor. • Fasting was not required for this study. • Body weights were recorded prior to dose administration. The volume of each dose delivered (mL/kg) was based on each individual animal's body weight. • This was a multiple dose terminal study dosed once per day over 5 days. Mice were taken down following their 5th and final dose. • Doses were administered in accordance with test facility standard operating procedures. […] Any abnormalities were recorded. • Pre-formulated Compound 3 and Compound 4 were provided by Study sponsor ready to be dosed for each day in accordance with the Study Design set forth in Table 1, below.
• Terminal blood samples were collected via cardiac puncture following inhalation of anesthesia in accordance with test facility standard operating procedures. • Blood samples were collected into tubes with appropriate anticoagulant. The tubes were stored on wet ice until processed to plasma by centrifugation (3500 rpm at 5° C. for 10 minutes) within 20 minutes of collection. Sample aliquots of 100 μL were transferred into individual uniquely labeled matrix tubes and stored at nominal −80° C. until transferred to analytical chemistry for analysis by LC/MS/MS. • Immediately following each terminal blood collection for all groups, animals were sacrificed and perfused with cold PBS. The following tissues were collected: heart and brain in accordance with Table 2. • Plasma and tissue samples were processed for analysis by LC/MS/MS to determine the amounts/concentrations reported in the FIGS. 18-21.

[4] = SC, up to 2 hours post dose after 5 days

| SMILES | inhibition of 15-lipoxygenase (15(S)-HETE in supernatant) (15-lipoxygenase (15-LO)) | relative 15-LO inhibition (comparison between test articles) (15-lipoxygenase (15-LO)) | relative protective effect against erastin induced ferroptosis (cell viability, ATP) [1] | relative protective effect against erastin induced ferroptosis (cell viability, ATP) [2] | exposure (Cmax and AUC) heart compared with brain ([3]; SC) | heart exposure based on AUC, comparison between compounds ([3]; SC) | uptake into plasma after subcutaneous injection ([3]; SC) | tolerability [3] | concentration in brain tissue [3, 4] | concentration in heart tissue [3, 4] | Tmax, Compound 4 compared with Compound 3 ([3]; in vivo, sc) | brain exposure based on AUC, comparison between compounds ([3]; in vivo, sc) | exposure (Cmax and AUC) heart compared with brain ([3]; in vivo, sc) | half-life, Compound 4 compared with Compound 3 ([3]; in vivo, sc) | uptake into plasma after subcutaneous injection ([3]; in vivo, sc) |
| --- | --- | --- | --- | --- | --- | --- | --- | --- | --- | --- | --- | --- | --- | --- | --- |
| CC1=C(C)C(=O)C(CC[C@@](C)(O)CC/C=C(\C)CCC=C(F)F)=C(C)C1=O [Compound 2] | inhibited 15-lipoxygenase | roughly equivalent protective effect | superior in their protective effect as compared with Vatiquinone or Compounds 1 or 4 | superior in their protective effect as compared with Vatiquinone or Compounds 1 or 4 | – | – | – | – | – | – | – | – | – | – | – |
| CC1=C(C)C(=O)C(CC[C@@](C)(O)COCCC[Si](C)(C)C)=C(C)C1=O [Compound 3] | inhibited 15-lipoxygenase | superior to Compounds 2, 4 and Vatiquinone | superior in their protective effect as compared with Vatiquinone or Compounds 1 or 4 | superior in their protective effect as compared with Vatiquinone or Compounds 1 or 4 | higher in heart than in brain | slightly higher that Compound 4 | migrate into the blood stream | well tolerated | up to microgram quantities of drug per gram of brain tissue | up to microgram quantities of drug per gram of heart tissue | – | – | – | – | – |
| CC1=C(C)C(=O)C(CC[C@](C)(O)CCCCCCCCC(F)(F)F)=C(C)C1=O [Compound 4] | inhibited 15-lipoxygenase | roughly equivalent protective effect | about equally protective | about equally protective | – | – | – | well tolerated | – | – | typically later | somewhat higher than Compound 3 | no difference in the two tissue exposures | tended to be longer | migrate into the blood stream |
